# Data: patent US20250270170A1, “2,3-DIMETHOXY-5-METHYL-1,4-BENZOQUINONE ALKYL ALCOHOL DERIVATIVE AND USE THEREOF” (BEIJING ANJIANXI BIO-MEDICAL TECHNOLOGY CO., LTD., priority 2021, published 2025)
# Several values for one entry are separate records, joined by “and”; a condition that tells them apart may be missing. Equal values may be shown once. Entries after “also recorded” stand apart in the source; their conditions may differ.
# Experiments:
# Type in all cases: in vivo, C57BL/6J mice
# [1] = Example 11: body weight in cisplatin-induced acute kidney damage model; settings: Amifostine group
# Procedure: (§1) 42 male C57BL/6J mice (age: 6 to 8 weeks, body weight 18-20 g, certificate number: 11400700238365) were purchased from Si Pei Fu (Beijing) Biotechnology Co., Ltd., and raised in an SPF-grade animal room of the Institute of Materia Medica, Chinese Academy of Medical Sciences, at a temperature of 20 to 25° C., a relative humidity of 40% to 70%, and a cycle of 12 hours of light and 12 hours of dark. The animals had free access to water and food. After 3 days of normal feeding, mice with good physical conditions after the veterinary examination were selected for this assay. Before grouping, a marker was used to mark on the base of the animals' tail. After grouping, each animal was marked with an ear cutout (7 mice in each group).
# (§2) Assay animals: 42 7-week-old male C57 mice were used for animal testing after an adaptive feeding.
# (§3) Group 1: blank control group;
# (§4) The preparation of the R01 formulation administration test solution was the same as that in Example 5: an appropriate amount of the R01 formulation was weighed according to the three dosages set in the assay, respectively, and an appropriate volume of 0.5% CMC-Na aqueous solution was added. The mixture was vortexed and sonicated until mixed evenly, to give the administration test solutions with concentrations of […], respectively, which were ready for use.
# (§5) Animal testing period: 7 days (excluding adaptive feeding), hereinafter referred to as: D1-D7.
# (§6) 1. The first group was a solvent control group: N=7, all mice were males (the same below); • a) 0.5% solution of sodium carboxymethyl cellulose was gavagely administered from D1 to D6 (twice a day for each animal, with an interval of 8 hours between the morning and the afternoon). • b) Physiological saline was intraperitoneally injected in one-time on D4. • c) On D7, blood was collected from the orbit for euthanasia (300 ul of serum was extracted), the left kidney was fixed in formaldehyde, and the right kidney was preserved in liquid nitrogen (WB study may be carried out).
# (§7) 3) Each animal was weighed before euthanasia, and the weight was recorded. Two kidneys were weighed as soon as possible after euthanasia, and the weight was recorded. Then, the two kidneys were quickly fixed or cryopreserved, and the kidney coefficient of the mouse was calculated (kidney weight/mouse weight).
# (§8) The body weight of the animals when being grouped for administration in each group was recorded. The body weight and the kidney weight at the end of the assay were also recorded, and the kidney coefficient was calculated. The creatinine and urea nitrogen values in the blood samples sent for testing were recorded. The kidneys were stained with HE and PAS, and the slides were scanned. A report was issued after the pathological analysis.
# (§9) The assay data were calculated and processed statistically using Microsoft Office Excel 2007 software. Unless otherwise specified, the data were expressed as mean±standard error (Mean±SE), and t-test was used for comparison between two groups.
# [2] = tested on: cisplatin-induced acute kidney damage in mice; assay: Example 11: kidney weight and kidney coefficient in cisplatin-induced acute kidney damage model
# Procedure: as §1, §2, §3, §4, §5, §6, §7, §8, §9
# [3] = tested on: cisplatin-induced acute kidney damage in mice; assay: Example 11: serum urea nitrogen (Bun) in cisplatin-induced acute kidney damage model
# Procedure: as §1, §2, §3, §4, §5, §6
# (§10) 1) The concentrations of urea nitrogen and creatinine in peripheral blood serum were tested.
# as §8, §9
# [4] = tested on: cisplatin-induced acute kidney damage in mice; assay: Example 11: serum creatinine (Cre) in cisplatin-induced acute kidney damage model
# Procedure: as §1, §2, §3, §4, §5, §6, §10, §8, §9
# [5] = tested on: cisplatin-induced acute kidney damage in mice; assay: Example 11: renal pathology (HE, PAS) and pathological scoring; settings: cisplatin 10 mg/kg alone (model) or with amifostine 50 mg/kg i.p. half an hour before; trihydrate
# Procedure: as §1, §2, §3, §4, §5
# 1. […]
# as §8, with “The kidneys were stained with HE and PAS, and the slides were scanned. A report was issued after the pathological analysis.” left out
# [6] = group mean, cisplatin model, Amifostine group
# [7] = individual animals No. 1-7, cisplatin model, Amifostine group, trihydrate
smiles,measurement,setting,value
"NCCCNCCSP(=O)(O)O [amifostine, Amifostine trihydrate, reference compound]","Body weight, Before x- after x","[1]; difference of group means, cisplatin model",4.1 g
same,"Body weight before cisplatin modeling, Before x (mean)",[1]; group mean,20.9 g
same,"Body weight after the assay, After x (mean)","[1]; group mean, cisplatin model",16.8 g
same,Body weight before cisplatin modeling,"[1]; individual animals No. 1-7, trihydrate",20.2 g and 20.6 g (2×) and 20.4 g and 20.5 g and 21.8 g and 22.4 g
same,Body weight after the assay,"[1]; individual animals No. 1-7, cisplatin model, trihydrate",18 g and 16.7 g and 16.8 g and 17.1 g and 16.3 g and 15.8 g and 17.2 g
same,"Kidney coefficient (kidney weight/body weight), x (mean)",[2]; [6],0.014
same,"Kidney weight after the assay, x (mean)",[2]; [6],0.224 g
same,Kidney coefficient (kidney weight/body weight),[2]; [7],0.014 (3×) and 0.015 (2×) and 0.013 (2×)
same,Kidney weight after the assay,[2]; [7],0.223 g and 0.249 g and 0.202 g and 0.227 g and 0.220 g and 0.205 g and 0.241 g
same,Kidney coefficient (kidney weight/body weight),"[2]; with cisplatin 10 mg/kg, amifostine 50 mg/kg i.p., R01 6, 18, 36 mg/kg bid",equivalent to that of the blank control group
same,serum urea nitrogen value,"[3]; cisplatin 10 mg/kg alone (vs blank, P<0.05) or with amifostine 50 mg/kg i.p. (P<0.01)",significantly lower than that of the model group
same,"Urea nitrogen (Bun) level after the assay, x (mean)",[3]; [6],8.1 mg/dL
same,Urea nitrogen (Bun) level after the assay,[3]; [7],10.92 mg/dL and 8.76 mg/dL and 6.62 mg/dL and 7.23 mg/dL and 7.62 mg/dL and 8.78 mg/dL and 6.47 mg/dL
same,serum creatinine value,"[4]; cisplatin 10 mg/kg alone (vs blank, P<0.01) or with amifostine 50 mg/kg i.p. / R01 6, 18, 36 mg/kg bid",equivalent to that of the blank control group
same,"Serum creatinine (Cre) level after the assay, x (mean)",[4]; [6],16.1 mg/dL
same,Serum creatinine (Cre) level after the assay,[4]; [7],9 mg/dl and 19 mg/dl and 14 mg/dl and 18 mg/dl (3×) and 17 mg/dl
same,pathological damage of kidneys,[5],slight renal tubular damage and blurred renal tubular epithelial edges; also recorded: significantly reduced
